Columns and labels:
[1] = target: JH2 domain of human Tyk2 (Homo sapiens (Human), UniProt P29597); test: JH2 Biochemical Assay (TR-FRET probe displacement); assay type: binding; details: TR-FRET probe displacement, JH2 domain of human Tyk2
[2] = target: Tyk2 (Homo sapiens (Human), UniProt P29597); test: pSTAT4 Cell Assay (MSD, NK92 cells); assay type: cell-based; details: MSD
Chain of Tyk2 (P29597 whole entry): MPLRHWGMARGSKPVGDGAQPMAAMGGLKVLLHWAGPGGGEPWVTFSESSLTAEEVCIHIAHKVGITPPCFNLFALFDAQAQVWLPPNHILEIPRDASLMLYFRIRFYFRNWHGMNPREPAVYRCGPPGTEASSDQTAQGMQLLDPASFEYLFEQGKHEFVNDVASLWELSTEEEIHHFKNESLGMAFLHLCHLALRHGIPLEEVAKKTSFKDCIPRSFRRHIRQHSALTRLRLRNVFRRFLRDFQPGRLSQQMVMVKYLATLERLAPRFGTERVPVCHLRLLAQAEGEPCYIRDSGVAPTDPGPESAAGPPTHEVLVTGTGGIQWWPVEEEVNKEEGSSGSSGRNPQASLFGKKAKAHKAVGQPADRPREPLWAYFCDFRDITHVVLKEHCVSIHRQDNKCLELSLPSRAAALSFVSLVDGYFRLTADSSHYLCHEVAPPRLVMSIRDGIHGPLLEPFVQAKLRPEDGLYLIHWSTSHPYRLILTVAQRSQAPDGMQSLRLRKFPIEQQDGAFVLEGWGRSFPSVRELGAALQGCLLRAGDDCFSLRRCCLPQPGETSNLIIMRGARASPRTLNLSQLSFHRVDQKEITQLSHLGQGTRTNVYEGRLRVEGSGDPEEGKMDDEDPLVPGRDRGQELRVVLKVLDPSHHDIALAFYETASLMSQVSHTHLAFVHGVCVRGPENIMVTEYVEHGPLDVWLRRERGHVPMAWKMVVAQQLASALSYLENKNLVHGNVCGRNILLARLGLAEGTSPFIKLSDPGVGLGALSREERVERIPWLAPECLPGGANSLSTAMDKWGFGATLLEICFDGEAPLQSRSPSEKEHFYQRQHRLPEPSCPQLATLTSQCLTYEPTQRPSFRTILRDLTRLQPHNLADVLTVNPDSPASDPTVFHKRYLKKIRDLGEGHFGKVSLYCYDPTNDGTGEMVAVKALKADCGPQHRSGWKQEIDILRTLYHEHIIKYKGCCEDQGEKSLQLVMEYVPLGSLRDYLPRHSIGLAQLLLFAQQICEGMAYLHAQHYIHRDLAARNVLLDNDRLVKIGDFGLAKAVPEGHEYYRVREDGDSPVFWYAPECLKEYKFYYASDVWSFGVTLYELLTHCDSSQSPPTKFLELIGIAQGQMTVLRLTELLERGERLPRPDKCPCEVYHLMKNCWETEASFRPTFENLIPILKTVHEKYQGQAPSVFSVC

Chain of JH2 domain of human Tyk2 (P29597 575-876): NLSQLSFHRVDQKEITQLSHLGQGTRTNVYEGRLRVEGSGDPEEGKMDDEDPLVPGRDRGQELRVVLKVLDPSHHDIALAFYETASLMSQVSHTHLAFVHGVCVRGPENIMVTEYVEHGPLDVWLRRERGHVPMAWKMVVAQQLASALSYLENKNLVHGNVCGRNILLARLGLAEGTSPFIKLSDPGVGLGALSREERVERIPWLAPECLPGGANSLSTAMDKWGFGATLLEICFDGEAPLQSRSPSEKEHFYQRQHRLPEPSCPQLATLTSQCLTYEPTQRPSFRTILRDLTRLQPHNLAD

In the case of CCOc1cc(-c2cnc(NC(C)=O)cc2Nc2cc(C)nc(C(C)(F)F)n2)ncn1 [Example 243, N-(4-((2-(1,1-difluoroethyl)-6-methylpyrimidin-4-yl)amino)-5-(6-ethoxypyrimidin-4-yl)pyridin-2-yl)acetamide], the IC50 [1] is reported as no more than 10 nM and the IC50 [2] is reported as 10 to 100 nM.

CCc1cc(-c2cnc(NC(C)=O)cc2Nc2cc(C)nc(C(C)(F)F)n2)ncn1 [Example 244, N-(4-((2-(1,1-difluoroethyl)-6-methylpyrimidin-4-yl)amino)-5-(6-ethylpyrimidin-4-yl)pyridin-2-yl)acetamide] showed an IC50 [1] of no more than 10 nM and an IC50 [2] of 10 to 100 nM.

Compound CC(=O)Nc1cc(Nc2cc(C)nc(C(C)(F)F)n2)c(-c2cc(C(C)C)ncn2)cn1 [Example 245, N-(4-((2-(1,1-difluoroethyl)-6-methylpyrimidin-4-yl)amino)-5-(6-isopropylpyrimidin-4-yl)pyridin-2-yl)acetamide] has an IC50 [1] of no more than 10 nM and an IC50 [2] of 10 to 100 nM.

Compound CC(=O)Nc1cc(Nc2cc(C)nc(C(C)(F)F)n2)c(-c2cc(N(C)C)ncn2)cn1 [Example 247, N-(4-((2-(1,1-difluoroethyl)-6-methylpyrimidin-4-yl)amino)-5-(6-(dimethylamino)pyrimidin-4-yl)pyridin-2-yl)acetamide] has an IC50 [1] of no more than 10 nM and an IC50 [2] of no less than 1000 nM.

COCCn1cnc(-c2cnc(NC(C)=O)cc2Nc2cc(C)nc(C(C)(F)F)n2)cc1=O [Example 250, N-(4-((2-(1,1-difluoroethyl)-6-methylpyrimidin-4-yl)amino)-5-(1-(2-methoxyethyl)-6-oxo-1,6-dihydropyrimidin-4-yl)pyridin-2-yl)acetamide] gave an IC50 [1] of no more than 10 nM and an IC50 [2] of 100 to 1000 nM.

Compound CC(=O)Nc1cc(Nc2cc(C)nc(C(C)(F)F)n2)c(-c2cccnn2)cn1 [Example 251, N-(4-((2-(1,1-difluoroethyl)-6-methylpyrimidin-4-yl)amino)-5-(pyridazin-3-yl)pyridin-2-yl)acetamide] has an IC50 [1] of no more than 10 nM and an IC50 [2] of no more than 10 nM.

In the case of CC(=O)Nc1cc(Nc2cc(C)nc(C(C)(F)F)n2)c(-c2cc(C)cnn2)cn1 [Example 252, N-(4-((2-(1,1-difluoroethyl)-6-methylpyrimidin-4-yl)amino)-5-(5-methylpyridazin-3-yl)pyridin-2-yl)acetamide], the IC50 [1] is reported as no more than 10 nM and the IC50 [2] is reported as no more than 10 nM.

CC(=O)Nc1cc(Nc2cc(C)nc(C(C)(F)F)n2)c(-c2cc(NC(C)C)cnn2)cn1 [Example 254, N-(4-((2-(1,1-difluoroethyl)-6-methylpyrimidin-4-yl)amino)-5-(5-(isopropylamino)pyridazin-3-yl)pyridin-2-yl)acetamide] showed an IC50 [1] of no more than 10 nM and an IC50 [2] of no more than 10 nM.

For CC(=O)Nc1cc(Nc2ccnc(C(C)(F)F)n2)c(-c2nnc(N3CCOCC3)s2)cn1 [Example 255, N-(4-((2-(1,1-difluoroethyl)pyrimidin-4-yl)amino)-5-(5-morpholino-1,3,4-thiadiazol-2-yl)pyridin-2-yl)acetamide], the IC50 [1] was no more than 10 nM and the IC50 [2] was no more than 10 nM.

CC(=O)Nc1cc(Nc2ccnc(C(C)(F)F)n2)c(-c2cc(N(C)C)ncn2)cn1 [Example 256, N-(4-((2-(1,1-difluoroethyl)pyrimidin-4-yl)amino)-5-(6-(dimethylamino)pyrimidin-4-yl)pyridin-2-yl)acetamide] showed an IC50 [1] of 10 to 100 nM and an IC50 [2] of no less than 1000 nM.

With COCCn1ccc(-c2cnc(NC(C)=O)cc2Nc2cc(C)nc(C(C)(F)F)n2)n1 [Example 257, N-(4-((2-(1,1-difluoroethyl)-6-methylpyrimidin-4-yl)amino)-5-(1-(2-methoxyethyl)-1H-pyrazol-3-yl)pyridin-2-yl)acetamide] the IC50 [1] was no more than 10 nM and the IC50 [2] was no more than 10 nM.

In the case of COCCn1nccc1-c1cnc(NC(C)=O)cc1Nc1cc(C)nc(C(C)(F)F)n1 [Example 258, N-(4-((2-(1,1-difluoroethyl)-6-methylpyrimidin-4-yl)amino)-5-(1-(2-methoxyethyl)-1H-pyrazol-5-yl)pyridin-2-yl)acetamide], the IC50 [1] is reported as 100 to 1000 nM and the IC50 [2] is reported as 100 to 1000 nM.

Source: US20260028365A1 (BIOGEN MA INC., priority 2022, published 2026)
